Data from PubChem BioAssay (NCI).
Several values for one entry are separate records, joined by “and”; a condition that tells them apart may be missing. Equal values may be shown once.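 How tested: cells in 96-well plates exposed to compound for 48 hours at five concentrations. Here, GI50 denotes the concentration required for 50% inhibition of growth. TGI: total growth inhibition.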

Tests used:
Assay in all cases: inhibition of tumour cell growth, NCI panel, 48 h
U251 CNS = tested on: U251 CNS
K-562 leukemia = tested on: K-562 leukemia
SF-539 CNS = tested on: SF-539 CNS
SK-OV-3 ovarian = tested on: SK-OV-3 ovarian
SK-MEL-5 melanoma = tested on: SK-MEL-5 melanoma
BT-549 breast = tested on: BT-549 breast
HOP-92 NSCLC = tested on: HOP-92 NSCLC
SNB-75 CNS = tested on: SNB-75 CNS
MDA-MB-231 breast = tested on: MDA-MB-231 breast
SR leukemia = tested on: SR leukemia

Structure (SMILES) | GI50 (U251 CNS) | TGI (U251 CNS) | GI50 (K-562 leukemia) | TGI (K-562 leukemia) | GI50 (SF-539 CNS) | TGI (SF-539 CNS) | GI50 (SK-OV-3 ovarian) | TGI (SK-OV-3 ovarian) | GI50 (SK-MEL-5 melanoma) | TGI (SK-MEL-5 melanoma) | GI50 (BT-549 breast) | TGI (BT-549 breast) | GI50 (HOP-92 NSCLC) | TGI (HOP-92 NSCLC) | GI50 (SNB-75 CNS) | TGI (SNB-75 CNS) | GI50 (MDA-MB-231 breast) | TGI (MDA-MB-231 breast) | GI50 (SR leukemia) [µM] | TGI (SR leukemia) [µM]
O=C1OCC2=C1C(c1ccc(Cl)c(Cl)c1)c1cc3c(cc1N2CCO)OCCO3 (centres undefined) | 0.206 µM | 12.7 µM | 0.211 µM | > 22.6 µM | 0.177 µM | 1.74 µM | 0.215 µM | 2.32 µM | 0.148 µM | 6.37 µM | 0.583 µM | 15.5 µM | 0.236 µM | 8.2 µM | 0.128 µM | 9.2 µM | 0.833 µM | 7.59 µM | 0.187 | 21.7
COc1cc2c(c(OC)c1OC)-c1ccc(SC)c(=O)cc1C(NC(=O)c1ccccc1)CC2 (centres undefined) | – | 4.18 µM | – | > 68.1 µM | – | 0.0922 µM | – | 1.94 µM | – | < 0.01 µM | – | > 31.6 µM | – | 3.79 µM | – | 4.01 µM | – | 1.77 µM | – | 27
O=C1NC(=O)C(N2C(=O)c3ccccc3C2=O)CC1O (centres undefined) | > 100 µM | > 100 µM | > 100 µM | > 100 µM | > 100 µM | > 100 µM | > 100 µM | > 100 µM | – | – | > 100 µM | > 100 µM | > 100 µM | > 100 µM | > 100 µM | > 100 µM | > 100 µM | > 100 µM | > 100 | > 100
O=C(/C=C/c1cc2ccccc2[nH]c1=O)/C=C/c1cc2ccccc2[nH]c1=O | 4.53 µM | 12.1 µM | > 23.1 µM | > 100 µM | 9.13 µM | > 75.9 µM | 31.4 µM | > 100 µM | 23.5 µM | > 100 µM | 6.86 µM | 12.4 µM | > 100 µM | > 100 µM | > 26.3 µM | > 67.5 µM | 15.4 µM | > 100 µM | 6.42 | > 100
Nc1nc(OCc2ccccc2)c2[nH]cnc2n1 | 37.9 µM and 35.9 µM | 400 µM and 204 µM | 46.4 µM | 400 µM and 307 µM | 30 µM and 31.4 µM | 266 µM and 154 µM | 21.8 µM and 20.8 µM | 71.9 µM and 160 µM and 60 µM | 34.5 µM and 35.4 µM | 193 µM and 149 µM | 24.3 µM and 22.1 µM | 115 µM | 7.9 µM and 27.2 µM | 89.2 µM and 239 µM and 183 µM | 13.9 µM | 67.3 µM and 86.1 µM | 36.5 µM and 31.5 µM | 163 µM | 36.6 | –
COc1cc2c(cc1OCCCn1c(-c3ccccn3)nc3ccccc31)N=C[C@@H]1CCCN1C2=O | 2.37 µM | 11.4 µM | 12.2 µM | > 55.3 µM | 2.27 µM | 4.98 µM | 4.23 µM | 19.6 µM | 1.57 µM | 2.96 µM | 1.6 µM | 4.87 µM | 3.87 µM | 26.6 µM | 1.72 µM | 5.73 µM | 2.5 µM | 13.5 µM | 2.82 | > 20.1
C=CC(=O)Nc1cccc(Oc2nc(Nc3ccc(N4CCN(C)CC4)cc3)nc3ccsc23)c1 | 2.89 µM and 2.97 µM | > 10 µM and 9.01 µM | 2.03 µM and 2.15 µM | 4.97 µM and 4.87 µM | 1.62 µM and 1.75 µM | 3.02 µM and 3.23 µM | 0.307 µM and 0.508 µM | > 10 µM and 14 µM | 1.64 µM and 1.75 µM | 3.05 µM and 3.16 µM | 2.8 µM and 3.62 µM | > 10 µM and 14.6 µM | 0.801 µM and 1.81 µM | 6.47 µM and 4.97 µM | 1.54 µM and 2.1 µM | > 10 µM and 10.5 µM | 2.25 µM and 2.24 µM | 6.44 µM and 5.78 µM | 2.23 | 5.73
CC(=O)/C=C/c1cn(C(=O)OC(C)(C)C)c2ccc(Br)cc12 | 12.5 µM | 25.5 µM | 18 µM | > 54 µM | 12.8 µM | 26 µM | 20.6 µM | 46.7 µM | 13.6 µM | 32.9 µM | 5.87 µM | 26.4 µM | 13.4 µM | 35.8 µM | 14.4 µM | 39.3 µM | 18.9 µM | 43.8 µM | 71.6 | > 100
COc1cc2nc(N3CCCC3)nc(NCCc3ccccc3)c2cc1OC | – | – | 1.81 µM | > 100 µM | 1.78 µM | 3.21 µM | 1.93 µM | 3.56 µM | 1.7 µM | 3.15 µM | 1.75 µM | 3.51 µM | 1.48 µM | 3.16 µM | 1.52 µM | 2.89 µM | 1.79 µM | 3.35 µM | 0.653 | 5.74
O=C(O)c1ccc(C(=O)c2ccccc2)c(C(=O)O)c1 | – | > 100 µM | – | > 100 µM | – | > 100 µM | – | > 100 µM | – | > 100 µM | – | > 100 µM | – | > 100 µM | – | > 100 µM | – | > 100 µM | – | > 100
O=[N+]([O-])c1ccc(C=Cc2ccccc2)cc1.[C-]#[O+].[C-]#[O+].[C-]#[O+].[Cr] | 36.7 µM | > 100 µM | 8.61 µM | > 100 µM | > 100 µM | > 100 µM | 22.9 µM | > 100 µM | 4.68 µM | 29.2 µM | 24.1 µM | > 100 µM | 4.94 µM | > 100 µM | 4.46 µM | 37.8 µM | 46.9 µM | > 100 µM | 2.49 | > 100
CN[C@@H](C)C(=O)N[C@H](C(=O)N1CCC[C@H]1C(=O)Nc1sc(-c2ncco2)nc1-c1ccccc1)C1CCCCC1 | 26.9 µM | > 77.7 µM | 24.7 µM | 63.6 µM | 0.957 µM | 17.8 µM | 0.0336 µM | 0.299 µM | 9.93 µM | 24 µM | 0.0598 µM | 33.6 µM | 3.52 µM | 13.4 µM | 12.2 µM | 65.4 µM | 0.425 µM | 17.2 µM | 14 | 54.7
O=S(=O)(Nc1cc(Sc2cccc3cccnc23)c(O)c2ccccc12)c1ccc(F)cc1 | 0.839 µM | 10.4 µM | 1.37 µM | 9.52 µM | 2.04 µM | 5.99 µM | 3.23 µM | 13.4 µM | 1.66 µM | 3.16 µM | 3.04 µM | 13.7 µM | 2.02 µM | 7.08 µM | 3.68 µM | 15.2 µM | 0.837 µM | 8.9 µM | 0.465 | 7.63
Cc1ccc(/C=N\NC(=O)c2[nH]c3ccc(F)cc3c2-c2ccccc2)cc1 | 0.0378 µM | > 58.9 µM | 0.038 µM | 15.5 µM | 0.0297 µM | 0.965 µM | 0.0307 µM | 2.19 µM | 0.0224 µM | 0.0559 µM | 0.034 µM | 7.29 µM | 0.0363 µM | 50.3 µM | 0.0382 µM | 16.6 µM | 0.0283 µM | 0.129 µM | 0.0323 | > 64.2
O=C(OCc1ccc2ccccc2n1)c1cn(C2CC2)c2cc(N3CCN(Cc4ccc5ccccc5n4)CC3)c(F)cc2c1=O | 56.7 µM | > 100 µM | > 53.5 µM | > 100 µM | 21.2 µM | 58 µM | > 80.7 µM | > 100 µM | 20.1 µM | 62.2 µM | 23.1 µM | 68 µM | > 100 µM | > 100 µM | 32 µM | > 66.6 µM | > 46.9 µM | > 84 µM | > 100 | > 100
CCCN(CCS(C)(=O)=O)Cc1ccc(-c2ccc3ncnc(Nc4ccc(OCc5cccc(F)c5)c(Cl)c4)c3c2)o1 | > 25 µM | > 25 µM | 9.49 µM | > 25 µM | > 25 µM | > 25 µM | 0.0197 µM | 0.192 µM | > 14.1 µM | > 25 µM | > 25 µM | > 25 µM | > 25 µM | > 25 µM | > 25 µM | > 25 µM | > 25 µM | > 25 µM | > 20.9 | > 25
CCOc1ccccc1C(=O)N1CCN(c2cc(Cl)cc(Cl)c2)CC1 | 0.0407 µM | 14.3 µM | 0.0286 µM | 25.8 µM | 0.0252 µM | 0.412 µM | 0.258 µM | 9.14 µM | 0.0345 µM | 0.177 µM | 0.0429 µM | 4.34 µM | 0.182 µM | 12.9 µM | 0.474 µM | 14.3 µM | 0.0444 µM | 12.3 µM | 0.0335 | 22
O=C1c2c(c3c4ccccc4[nH]c3c3ccc4ccccc4c23)C(=O)N1CCN1CCNCC1 | 1.64 µM | 3.21 µM | 1.44 µM | 3.09 µM | 1.68 µM | 3.06 µM | 1.86 µM | 3.58 µM | 1.78 µM | 3.31 µM | 1.58 µM | 2.97 µM | 1.83 µM | 4.14 µM | 1.47 µM | 2.82 µM | 1.72 µM | 3.27 µM | 0.598 | 2.63
O=C1OC(=O)C(=C\c2ccc3c(c2)OCO3)/C1=C/c1ccc2c(c1)OCO2 | – | > 100 µM | – | > 100 µM | – | > 100 µM | – | > 100 µM | – | > 100 µM | – | > 100 µM | – | > 100 µM | – | – | – | > 100 µM | – | > 90.8
